Where two headings read alike, the source gives them in different places.
Experiments:
[1] = biological target: serotonin 5-HT2A receptor (Homo sapiens, UniProt P28223); conditions: cited from earlier work
rhesus monkeys [2] = conditions: nonhuman primates, recent report; cited from earlier work
opioid receptors = type: biochemical
humans = conditions: cited from earlier work
κ receptors = κ receptors (Homo sapiens, UniProt P41145); assay: biochemical; type: binding
rhesus monkeys [3] = assay: behavioral / discriminative stimulus effects, generalization to U69,593; type: in vivo; parameters: generalization to U69,593: dose or concentration left out as unconfirmed
Method: In an effort to further understand the in vivo pharmacology of these derivatives, propionate 9 was evaluated for behavioral effects in nonhuman primates in a pilot study. […] Propionate 9 generalized to U69,593 in only one of two rhesus monkeys tested, up to the highest dose that could be administered ([…], s.c.).

μ receptors = μ receptors (Homo sapiens, UniProt P35372); assay: opioid receptor binding affinity, [^125I]IOXY as radioligand (μ); conditions: for Ki: [^125I]IOXY radioligand
Chain of μ receptors (P35372 whole entry): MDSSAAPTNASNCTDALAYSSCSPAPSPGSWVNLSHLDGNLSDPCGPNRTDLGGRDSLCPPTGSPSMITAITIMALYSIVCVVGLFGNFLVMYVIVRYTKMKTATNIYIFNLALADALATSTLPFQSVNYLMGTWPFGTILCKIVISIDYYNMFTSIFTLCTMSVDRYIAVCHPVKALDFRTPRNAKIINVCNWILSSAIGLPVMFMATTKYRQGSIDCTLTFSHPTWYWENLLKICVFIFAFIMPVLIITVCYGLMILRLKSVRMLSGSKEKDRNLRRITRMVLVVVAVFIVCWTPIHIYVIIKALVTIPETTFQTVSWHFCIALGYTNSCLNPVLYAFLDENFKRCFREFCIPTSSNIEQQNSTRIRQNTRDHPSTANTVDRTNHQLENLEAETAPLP

δ receptors = δ receptors (Homo sapiens, UniProt P41143); assay: biochemical; type: binding
Chain of δ receptors (P41143 whole entry): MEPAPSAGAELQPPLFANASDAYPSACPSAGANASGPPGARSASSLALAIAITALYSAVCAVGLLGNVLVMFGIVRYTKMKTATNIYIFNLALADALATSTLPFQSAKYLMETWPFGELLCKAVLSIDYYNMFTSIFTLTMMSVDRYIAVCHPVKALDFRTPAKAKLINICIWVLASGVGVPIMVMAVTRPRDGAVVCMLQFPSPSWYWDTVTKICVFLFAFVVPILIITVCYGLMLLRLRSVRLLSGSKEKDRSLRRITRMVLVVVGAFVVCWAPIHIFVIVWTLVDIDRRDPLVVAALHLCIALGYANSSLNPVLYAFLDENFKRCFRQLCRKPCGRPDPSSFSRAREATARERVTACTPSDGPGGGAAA

Chain of κ receptors (P41145 whole entry): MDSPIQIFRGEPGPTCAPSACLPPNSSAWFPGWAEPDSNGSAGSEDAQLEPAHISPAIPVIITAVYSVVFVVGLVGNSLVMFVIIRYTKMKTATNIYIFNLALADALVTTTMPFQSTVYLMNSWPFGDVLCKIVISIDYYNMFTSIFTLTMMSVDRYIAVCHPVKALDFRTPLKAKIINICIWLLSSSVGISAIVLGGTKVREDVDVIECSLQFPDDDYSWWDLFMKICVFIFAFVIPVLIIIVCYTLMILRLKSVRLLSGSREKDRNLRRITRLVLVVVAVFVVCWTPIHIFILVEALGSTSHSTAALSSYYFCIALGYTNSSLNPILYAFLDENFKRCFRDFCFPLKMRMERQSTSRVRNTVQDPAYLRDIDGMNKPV
Chain of serotonin 5-HT2A receptor (P28223 whole entry): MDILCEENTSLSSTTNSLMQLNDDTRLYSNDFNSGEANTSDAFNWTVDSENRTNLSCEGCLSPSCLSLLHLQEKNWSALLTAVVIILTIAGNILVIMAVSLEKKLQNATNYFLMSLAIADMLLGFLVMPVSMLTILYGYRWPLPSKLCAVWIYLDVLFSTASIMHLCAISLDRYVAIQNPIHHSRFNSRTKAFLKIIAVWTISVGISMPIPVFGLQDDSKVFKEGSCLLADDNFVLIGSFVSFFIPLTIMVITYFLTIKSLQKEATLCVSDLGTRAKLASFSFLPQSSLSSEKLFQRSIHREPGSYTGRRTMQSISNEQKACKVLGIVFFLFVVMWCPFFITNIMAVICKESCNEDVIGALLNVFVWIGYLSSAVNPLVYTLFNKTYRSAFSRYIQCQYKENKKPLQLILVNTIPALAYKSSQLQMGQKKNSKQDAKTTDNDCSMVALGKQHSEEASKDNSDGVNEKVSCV

## COC(=O)[C@@H]1C[C@H](OC(C)=O)C(=O)[C@H]2[C@@]1(C)CC[C@H]1C(=O)O[C@H]([C@]3(O)[C@H](OC)O[C@H](OC)[C@H]3O)C[C@]21C
other
  melting point: 272 to 274 °C

## COC(=O)[C@@H]1C[C@H](OC(C)=O)C(=O)[C@H]2[C@@]1(C)CC[C@H]1C(=O)O[C@H]([C@]3(O)[C@@H](OC)O[C@@H](OC)[C@H]3O)C[C@]21C
other
  melting point: 151 to 153 °C

## COC(=O)[C@@H]1C[C@H](OC(C)=O)C(=O)[C@H]2[C@@]1(C)CC[C@H]1C(=O)O[C@H](c3ccoc3)C[C@]21C [Compound 1, Salvinorin A]
[1]
  activity at the serotonin 5-HT2A receptor: no activity
Rhesus monkeys [2]
  discriminative stimulus effect: discriminative stimulus effect similar to the high efficacy κ agonist U69,593
Opioid receptors; [^35S]GTPγS assay
  functional activity: agonists
humans
  smoked dose producing profound hallucinations: 200 to 500 µg

## CCC(=O)O[C@H]1C[C@@H](C(=O)OC)[C@]2(C)CC[C@H]3C(=O)O[C@H](c4ccoc4)C[C@]3(C)[C@H]2C1=O [Compound 9, (2S,4aR,6aR,7R,9S,10aS,10bR)-9-(propionyloxy)-2-(3-furanyl)dodecahydro-6a,10b-dimethyl-4,10-dioxo-2H-naphtho[2,1-c]pyran-7-carboxylic acid methyl ester]
κ receptors; read-out: Ki at κ receptors
  Ki: 1.8 nM
Rhesus monkeys [3]; nonhuman primates, pilot study, preliminary results
  behavioral effect: partial κ agonist
Rhesus monkeys [3]; rhesus monkeys, up to highest dose, s.c.
  generalization to U69,593: one of two
Opioid receptors
  functional activity: agonists

## COC(=O)[C@@H]1C[C@H](OC(=O)C(C)C)C(=O)[C@H]2[C@@]1(C)CC[C@H]1C(=O)O[C@H](c3ccoc3)C[C@]21C [Compound 10, (2S,4aR,6aR,7R,9S,10aS,10bR)-9-(isobutyryloxy)-2-(3-furanyl)-dodecahydro-6a,10b-dimethyl-4,10-dioxo-2H-naphtho[2,1-c]pyran-7-carboxylic acid methyl ester]
κ receptors
  Ki: 2980 nM
  fold reduction of affinity at κ receptors compared to 9: approximately 10 fold
κ receptors; read-out: Ki at κ receptors
  Ki: 19 nM

## C=C(C)C(=O)O[C@H]1C[C@@H](C(=O)OC)[C@]2(C)CC[C@H]3C(=O)O[C@H](c4ccoc4)C[C@]3(C)[C@H]2C1=O [Compound 11, (2S,4aR,6aR,7R,9S,10aS,10bR)-9-(2-methylacryloyloxy)-2-(3-furanyl)-dodecahydro-6a,10b-dimethyl-4,10-dioxo-2H-naphtho[2,1-c]pyran-7-carboxylic acid methyl ester]
κ receptors
  Ki: 260 nM
  fold increase in affinity, printed 'at κ receptors', compared to 10: ~11 fold
κ receptors; read-out: Ki at κ receptors
  Ki: 42 nM

## COC(=O)C(=O)O[C@H]1C[C@@H](C(=O)OC)[C@]2(C)CC[C@H]3C(=O)O[C@H](c4ccoc4)C[C@]3(C)[C@H]2C1=O [Compound 12, Oxalic acid methyl ester (2S,4aR,6aR,7R,9S,10aS,10bR)-7-carbomethoxy-2-(3-furanyl)dodecahydro-6a,10b-dimethyl-4,10-dioxo-2H-naphtho[2,1-c]pyran-9-yl ester]
κ receptors
  fold loss of affinity at κ receptors compared to 11: 10 fold
κ receptors; read-out: Ki at κ receptors
  Ki: 430 nM

## COC(=O)[C@@H]1C[C@H](OC(=O)c2ccccc2)C(=O)[C@H]2[C@@]1(C)CC[C@H]1C(=O)O[C@H](c3ccoc3)C[C@]21C [Compound 13, (2S,4aR,6aR,7R,9S,10aS,10bR)-9-(benzoyloxy)-2-(3-furanyl)-dodecahydro-6a,10b-dimethyl-4,10-dioxo-2H-naphtho[2,1-c]pyran-7-carboxylic acid methyl ester]
κ receptors
  fold loss/decrease in affinity at κ receptors compared to 1: 47 fold
κ receptors; read-out: Ki at κ receptors
  Ki: 90 nM
Opioid receptors
  functional activity: agonists
μ receptors
  selectivity for μ opioid receptor: binds selectively to the μ opioid receptor
  Ki: 12 nM

## COC(=O)[C@@H]1C[C@H](OC(=O)c2cccnc2)C(=O)[C@H]2[C@@]1(C)CC[C@H]1C(=O)O[C@H](c3ccoc3)C[C@]21C [Compound 14, Nicotinic acid (2S,4aR,6aR,7R,9S,10aS,10bR)-7-carbomethoxy-2-(3-furanyl)dodecahydro-6a,10b-dimethyl-4,10-dioxo-2H-naphtho[2,1-c]pyran-9-yl ester]
κ receptors; read-out: Ki at κ receptors
  Ki: 1930 nM
μ receptors
  Ki: 73 nM
μ receptors; ratio of Ki vs. 13
  fold decrease in affinity at μ receptors compared to 13: 21 fold

## COC(=O)[C@@H]1C[C@H](OS(C)(=O)=O)C(=O)[C@H]2[C@@]1(C)CC[C@H]1C(=O)O[C@H](c3ccoc3)C[C@]21C [Compound 15, (2S,4aR,6aR,7R,9S,10aS,10bR)-9-(methanesulfonyloxy)-2-(3-furanyl)-dodecahydro-6a,10b-dimethyl-4,10-dioxo-2H-naphtho[2,1-c]pyran-7-carboxylic acid methyl ester]
κ receptors; read-out: Ki at κ receptors
  Ki: 2.3 nM
Opioid receptors
  functional activity: agonists

## COC(=O)[C@@H]1C[C@H](O[Si](C)(C)C)C(=O)[C@H]2[C@@]1(C)CC[C@H]1C(=O)O[C@H](c3ccoc3)C[C@]21C [Compound 16, (2S,4aR,6aR,7R,9S,10aS,10bR)-9-(trimethylsilanyloxy)-2-(3-furanyl)-dodecahydro-6a,10b-dimethyl-4,10-dioxo-2H-naphtho[2,1-c]pyran-7-carboxylic acid methyl ester]
κ receptors
  fold loss/decrease in affinity at κ receptors compared to 1: 847 fold
κ receptors; read-out: Ki at κ receptors
  Ki: 1610 nM

## COC(=O)[C@@H]1C[C@H](O)[C@H](O)[C@H]2[C@@]1(C)CC[C@H]1C(=O)O[C@H](c3ccoc3)C[C@]21C [Compound 18, (2S,4aR,6aR,7R,9S,10R,10aS,10bR)-9,10-(dihydroxy)-2-(3-furanyl)dodecahydro-6a,10b-dimethyl-4-oxo-2H-naphtho[2,1-c]pyran-7-carboxylic acid methyl ester]
δ receptors
  affinity at δ receptors: low affinity
μ receptors
  affinity at μ receptors: low affinity

## COC(=O)[C@@H]1C[C@H](O)[C@H](O)[C@@H]2[C@@]3(C)C[C@@H](c4ccoc4)OC(=O)[C@H]3CC[C@]21C [Compound 19, (2S,4aS,6aR,7R,9S,10R,10aS,10bR)-9,10-(dihydroxy)-2-(3-furanyl)dodecahydro-6a,10b-dimethyl-4-oxo-2H-naphtho[2,1-c]pyran-7-carboxylic acid methyl ester]
κ receptors
  Ki: ~10000 nM
δ receptors
  Ki: ~10000 nM
μ receptors
  Ki: ~10000 nM

## COC(=O)[C@@H]1C[C@H](OC(C)=O)[C@H](OC(C)=O)[C@H]2[C@@]1(C)CC[C@H]1C(=O)O[C@H](c3ccoc3)C[C@]21C [Compound 20, (2S,4aR,6aR,7R,9S,10R,10aS,10bR)-9,10-(diacetoxy)-2-(3-furanyl)dodecahydro-6a,10b-dimethyl-4-oxo-2H-naphtho[2,1-c]pyran-7-carboxylic acid methyl ester]
κ receptors
  fold loss/decrease in affinity at κ receptors compared to 1: 340 fold
κ receptors; read-out: Ki at κ receptors
  Ki: 650 nM

## COC(=O)[C@@H]1C[C@H](OC(=N)C(Cl)(Cl)Cl)C(=O)[C@H]2[C@@]1(C)CC[C@H]1C(=O)O[C@H](c3ccoc3)C[C@]21C [Compound 21, (2S,4aR,6aR,7R,9S,10aS,10bR)-9-(2,2,2-trichloroacetimidoyloxy)-2-(3-furanyl)-dodecahydro-6a,10b-dimethyl-4,10-dioxo-2H-naphtho[2,1-c]pyran-7-carboxylic acid methyl ester]
κ receptors
  fold loss/decrease in affinity at κ receptors compared to 1: 34 fold
κ receptors; read-out: Ki at κ receptors
  Ki: 64 nM
δ receptors; read-out: Ki at δ receptors
  Ki: 6470 nM

## COC(=O)[C@@H]1C[C@H](OC(=O)Nc2ccccc2)C(=O)[C@H]2[C@@]1(C)CC[C@H]1C(=O)O[C@H](c3ccoc3)C[C@]21C [Compound 22, (2S,4aR,6aR,7R,9S,10aS,10bR)-9-(phenylcarbamoyloxy)-2-(3-furanyl)-dodecahydro-6a,10b-dimethyl-4,10-dioxo-2H-naphtho[2,1-c]pyran-7-carboxylic acid methyl ester]
κ receptors
  fold loss/decrease in affinity at κ receptors compared to 1: 49 fold
κ receptors; read-out: Ki at κ receptors
  Ki: 93 nM
δ receptors; read-out: Ki at δ receptors
  Ki: 230 nM
μ receptors
  Ki: 16 nM

## C=CCNC(=O)O[C@H]1C[C@@H](C(=O)OC)[C@]2(C)CC[C@H]3C(=O)O[C@H](c4ccoc4)C[C@]3(C)[C@H]2C1=O [Compound 23, (2S,4aR,6aR,7R,9S,10aS,10bR)-9-(allylcarbamoyloxy)-2-(3-furanyl)-dodecahydro-6a,10b-dimethyl-4,10-dioxo-2H-naphtho[2,1-c]pyran-7-carboxylic acid methyl ester]
κ receptors
  fold loss/decrease in affinity at κ receptors compared to 1: ~300 fold
κ receptors; read-out: Ki at κ receptors
  Ki: 120 nM
